The text below walks through data of patent US4725578A, “Compounds having therapeutic effect and the preparation thereof” (Tobishi Pharmaceutical Co., Ltd., priority 1986, dated 1988).

For orientation: T/C means the ratio of treated to control.

This experiment has as its system P-388 cells. In words: Antineoplastic action against implanted P-388 cells (ip-ip), survival T/C. It counts as in vivo, CDFl mice. To be noted: for T/C % (Treatment/Control %): Table 6, P388, intraperitoneal. The method, then: To the peritoneal cavity of each group of mice consisting of six CDFl mice per group, 10^6 /0.1 ml of P-388 cells or 10^5 /0.1 ml of L-1210 cells were implanted. […]
In the Table, the symbol T/C % means Treatment/Control %, that is the increase in life when the control is 100. […] This method is used in the screening of U.S. National Cancer Institute.
In Table 7, the symbol "i.P.-i.P." means that the tumor cells are implanted intraperitoneally and the compounds being tested are also administered intraperitoneally. The symbol "TR" is the therapeutic ratio obtained by dividing the dose which provides a maximum T/C value, by the dose which provides a minimum T/C value.

SMILES strings stand for the structures.

Regarding `CCOc1ccc2cc1Oc1ccc(cc1)CC1C(=O)N(C)C(C2)C(=O)NC(C)C(=O)NC(C)C(=O)N(C)C(Cc2ccc(OC)cc2)C(=O)NC(C)C(=O)N1C` (stereo not shown) [Ex. 3], the “T/C % (Treatment/Control %)” value is, setting by setting: (dose 0.05 mg/kg) 137.3%; (dose 0.5 mg/kg) 165.4%; (dose 2 mg/kg) 162.2%.
With `COc1ccc(CC2C(=O)NC(C)C(=O)N(C)C3Cc4ccc(cc4)Oc4cc(ccc4OC4CCCCO4)CC(C(=O)NC(C)C(=O)NC(C)C(=O)N2C)N(C)C3=O)cc1` (stereo not shown) [Ex. 20, tetrahydropyranylether of TPC-A], the “T/C % (Treatment/Control %)” value (dose 0.05 mg/kg) was 138.4%, the “T/C % (Treatment/Control %)” value (dose 0.5 mg/kg) was 164.3% and the “T/C % (Treatment/Control %)” value (dose 2 mg/kg) came out at 121.1%.
`CO[C@@]12[C@H](COC(N)=O)C3=C(C(=O)C(C)=C(N)C3=O)N1C[C@@H]1N[C@@H]12` [Mitomycin, reference compound]: the T/C (additional tests, P 388 (ip-ip), 0.5 mg/kg × 5, single agent) is given as 198.2%.
For the molecule `CCCCCCCCCOc1ccc2cc1Oc1ccc(cc1)CC1C(=O)N(C)C(C2)C(=O)NC(C)C(=O)NC(C)C(=O)N(C)C(Cc2ccc(OC)cc2)C(=O)NC(C)C(=O)N1C` (stereo not shown) [Ex. 10], the “T/C % (Treatment/Control %)” value runs as follows: (dose 0.05 mg/kg) 112.5%; (dose 0.5 mg/kg) 141.5%; (dose 2 mg/kg) 150.1%; (dose 4 mg/kg) 155.4%.
`COc1ccc(CC2C(=O)NC(C)C(=O)N(C)C3Cc4ccc(cc4)Oc4cc(ccc4OC(C)C)CC(C(=O)NC(C)C(=O)NC(C)C(=O)N2C)N(C)C3=O)cc1` (stereo not shown) [Ex. 5]: the “T/C % (Treatment/Control %)” value is listed as 142.4% (dose 0.05 mg/kg), 175.1% (dose 0.5 mg/kg) and 105.4% (dose 2 mg/kg).
As to `CC=CC(=O)Oc1ccc2cc1Oc1ccc(cc1)CC1C(=O)N(C)C(C2)C(=O)NC(C)C(=O)NC(C)C(=O)N(C)C(Cc2ccc(OC)cc2)C(=O)NC(C)C(=O)N1C` (stereo not shown) [Ex. 26], the “T/C % (Treatment/Control %)” value is, setting by setting: (dose 0.05 mg/kg) 124.1%; (dose 0.5 mg/kg) 148.5%; (dose 2 mg/kg) 162.3%; (dose 10 mg/kg) 186.6%.
As for `CCCC(=O)Oc1ccc2cc1Oc1ccc(cc1)CC1C(=O)N(C)C(C2)C(=O)NC(C)C(=O)NC(C)C(=O)N(C)C(Cc2ccc(OC)cc2)C(=O)NC(C)C(=O)N1C` (stereo not shown) [Ex. 24], the “T/C % (Treatment/Control %)” value reads like this: (dose 0.05 mg/kg) 125.1%; (dose 0.5 mg/kg) 144.2%; (dose 2 mg/kg) 155.9%; (dose 10 mg/kg) 170.0%.
Consider `COc1ccc(CC2C(=O)NC(C)C(=O)N(C)C3Cc4ccc(cc4)Oc4cc(ccc4OC(=O)CCC(C)C)CC(C(=O)NC(C)C(=O)NC(C)C(=O)N2C)N(C)C3=O)cc1` (stereo not shown) [Ex. 40, 4-methyl valerate], for which the “T/C % (Treatment/Control %)” value runs as follows: (dose 0.05 mg/kg) 111.6%; (dose 0.5 mg/kg) 133.9%; (dose 2 mg/kg) 152.1%.
As for `CCCC(C)C(=O)Oc1ccc2cc1Oc1ccc(cc1)CC1C(=O)N(C)C(C2)C(=O)NC(C)C(=O)NC(C)C(=O)N(C)C(Cc2ccc(OC)cc2)C(=O)NC(C)C(=O)N1C` (stereo not shown) [Ex. 43], the “T/C % (Treatment/Control %)” value runs as follows: (dose 0.05 mg/kg) 116.6%; (dose 0.5 mg/kg) 142.0%; (dose 2 mg/kg) 154.2%.
`CCC=CCC(=O)Oc1ccc2cc1Oc1ccc(cc1)CC1C(=O)N(C)C(C2)C(=O)NC(C)C(=O)NC(C)C(=O)N(C)C(Cc2ccc(OC)cc2)C(=O)NC(C)C(=O)N1C` (stereo not shown) [Ex. 45]: the “T/C % (Treatment/Control %)” value by setting is: (dose 0.05 mg/kg) 121.7%; (dose 0.5 mg/kg) 145.0%; (dose 2 mg/kg) 162.3%.
For the molecule `CCC(C)CC(=O)Oc1ccc2cc1Oc1ccc(cc1)CC1C(=O)N(C)C(C2)C(=O)NC(C)C(=O)NC(C)C(=O)N(C)C(Cc2ccc(OC)cc2)C(=O)NC(C)C(=O)N1C` (stereo not shown) [Ex. 42], the “T/C % (Treatment/Control %)” value reads like this: (dose 0.05 mg/kg) 114.6%; (dose 0.5 mg/kg) 140.0%; (dose 2 mg/kg) 159.2%.
Turning to `COc1ccc(CC2C(=O)NC(C)C(=O)N(C)C3Cc4ccc(cc4)Oc4cc(ccc4OC(=O)C(C)C)CC(C(=O)NC(C)C(=O)NC(C)C(=O)N2C)N(C)C3=O)cc1` (stereo not shown) [Ex. 25], the “T/C % (Treatment/Control %)” value (dose 0.05 mg/kg) is recorded as 124.1%, the “T/C % (Treatment/Control %)” value (dose 0.5 mg/kg) is listed as 150.7%, the “T/C % (Treatment/Control %)” value (dose 2 mg/kg) amounted to 155.9% and the “T/C % (Treatment/Control %)” value (dose 10 mg/kg) was 183.5%.
On to `CCCCC(=O)Oc1ccc2cc1Oc1ccc(cc1)CC1C(=O)N(C)C(C2)C(=O)NC(C)C(=O)NC(C)C(=O)N(C)C(Cc2ccc(OC)cc2)C(=O)NC(C)C(=O)N1C` (stereo not shown) [Ex. 27], for which the “T/C % (Treatment/Control %)” value runs as follows: (dose 0.05 mg/kg) 117.9%; (dose 0.5 mg/kg) 149.5%; (dose 2 mg/kg) 157.9%; (dose 10 mg/kg) 171.6%.
For `CCCC=CC(=O)Oc1ccc2cc1Oc1ccc(cc1)CC1C(=O)N(C)C(C2)C(=O)NC(C)C(=O)NC(C)C(=O)N(C)C(Cc2ccc(OC)cc2)C(=O)NC(C)C(=O)N1C` (stereo not shown) [Ex. 44], the “T/C % (Treatment/Control %)” value is 116.6% (dose 0.05 mg/kg), 150.1% (dose 0.5 mg/kg) and 165.3% (dose 2 mg/kg).
Consider `CCOC(=O)CCCOc1ccc2cc1Oc1ccc(cc1)CC1C(=O)N(C)C(C2)C(=O)NC(C)C(=O)NC(C)C(=O)N(C)C(Cc2ccc(OC)cc2)C(=O)NC(C)C(=O)N1C` (stereo not shown) [Ex. 19(2), ethoxycarbonylpropylether (2) of TPC-A], for which the “T/C % (Treatment/Control %)” value (dose 0.05 mg/kg) stood at 113.8%, the “T/C % (Treatment/Control %)” value (dose 0.5 mg/kg) was 139.6%, the “T/C % (Treatment/Control %)” value (dose 2 mg/kg) worked out at 141.7% and the “T/C % (Treatment/Control %)” value (dose 4 mg/kg) was 153.1%.
In the case of `CCC(=O)Oc1ccc2cc1Oc1ccc(cc1)CC1C(=O)N(C)C(C2)C(=O)NC(C)C(=O)NC(C)C(=O)N(C)C(Cc2ccc(OC)cc2)C(=O)NC(C)C(=O)N1C` (stereo not shown) [Ex. 23], the “T/C % (Treatment/Control %)” value by setting is: (dose 0.05 mg/kg) 129.0%; (dose 0.5 mg/kg) 145.3%; (dose 2 mg/kg) 164.4%; (dose 10 mg/kg) 175.0%.
In the case of `CCCCCOc1ccc2cc1Oc1ccc(cc1)CC1C(=O)N(C)C(C2)C(=O)NC(C)C(=O)NC(C)C(=O)N(C)C(Cc2ccc(OC)cc2)C(=O)NC(C)C(=O)N1C` (stereo not shown) [Ex. 7], the “T/C % (Treatment/Control %)” value reads like this: (dose 0.05 mg/kg) 122.2%; (dose 0.5 mg/kg) 142.7%; (dose 2 mg/kg) 165.4%.
With `CCCCCCCCOc1ccc2cc1Oc1ccc(cc1)CC1C(=O)N(C)C(C2)C(=O)NC(C)C(=O)NC(C)C(=O)N(C)C(Cc2ccc(OC)cc2)C(=O)NC(C)C(=O)N1C` (stereo not shown) [Ex. 9], the “T/C % (Treatment/Control %)” value is, setting by setting: (dose 0.05 mg/kg) 136.1%; (dose 0.5 mg/kg) 146.8%; (dose 2 mg/kg) 162.9%; (dose 4 mg/kg) 152.2%.
For `CCCCCCCOc1ccc2cc1Oc1ccc(cc1)CC1C(=O)N(C)C(C2)C(=O)NC(C)C(=O)NC(C)C(=O)N(C)C(Cc2ccc(OC)cc2)C(=O)NC(C)C(=O)N1C` (stereo not shown) [Ex. 8], in that order: 115.8%, 144.7%, 150.1% and 164.0%.
